Source: patent US11492618B2, “Expression control using a regulatable intron” (ASKLEPIOS BIOPHARMACEUTICAL, INC., priority 2017, dated 2022)

What was measured:
UPR = experiment: Induction of UPR by candidate inducers, EGFP read-out from SYNP-ATF6-02; format: cell-based, human; settings: HEK293F with SYNP-ATF6-02; DTT 2 mM, palmitate 0.5 mM, MF-43 1 μM; 0-24 hrs
Description: Experiments were performed to assess the ability of several candidate agents to induce the UPR. The ability of these candidate inducers to induce UPR was assessed using the techniques essentially as described above. The additional candidates tested were 0.5 mM palmitic acid, 1 uM MF-43 (2-methyl-5-(6-(4-(2-(trifluoromethyl)phenoxy)piperidin-1-yl)pyridazin-3-yl)-1,3,4-thiadiazole), which is an inhibitor of stearoyl-CoA desaturase, and a combination of both of these (for the same concentrations of each was used).
In these experiments transfections were done in 24-well plates as previously described. The SYNP-ATF6-02 plasmid (i.e. SYNP-ATF6-02 in pMA-RQ vector) was transfected into HEK293F cells and after 24 hrs GFP was measured. Induction of the UPR was then stimulated using the aforementioned inducers and samples were taken and measured at 0, 1, 3, 5 and 24 hrs after induction. GFP expression was measured as previously described. Results are the average of 3 individual experiments and the error bars represent the standard deviation.
Experimental procedure in brief: • 40 ml of cells were grown in a 250 ml vented Erlenmeyer flask (Sigma-Aldrich CLS431144) at 37° C., 8% CO2 with agitation at 100 rpm. […]
AAV production on induction of UPR: The ATF6 plasmid (i.e. SYNP-ATF6-02 in pMA-RQ vector) was transfected into HEK293 cells as previously described. 24 hrs later GFP was measured. […] EGFP fluorescence was then measured after 1, 3, 5 and 24 hrs. […]

HEK293-F cells = experiment: Luciferase expression from UPR-inducible promoters with different minimal promoters after 2 mM DTT; format: cell-based, human
Description: The purpose of this experiment was to test the ATF6-containing UPR-responsive cis-regulatory element (also referred to herein as an enhancer) as used in the examples above with different minimal promoters and to further assess their inducibility and tightness of control. To this end, the ATF6-containing UPR-responsive cis-regulatory element was operably linked to the CMV-MP and MinTK (herpes thymidine kinase minimal promoter) minimal promoters The constructs were synthesised by GeneART by chemical synthesis, as above.
As described above, the enhancer sequence contains 6 repeats of the sequence TGACGTGCT (which contains the ATF6 consensus sequence, TGACGTG) spaced by 20 bp spacer sequences. The enhancer sequence was coupled to either MinTK (in construct ATF06-MP001) or CMV-MP (in construct ATF06-MP002).
Transfection of HEK293-F cells was performed as previously described. DTT was added at a concentration of 2 mM. Luciferase activity was measured as previously described. The results are shown in FIG. 17—the DTT was added at time=0 h as shown on the X-axis (units are hours).

HEK293 cells [1] = experiment: Cell death (trypan blue) after induction of intron-controlled caspase 9; format: cell-based, human; settings: HEK293 with SYNP-CASP9-INT, DTT 2 mM
Description: Transfection was performed as previously described. DTT was added at 2 mM and forskolin was added at 10 μM. The latter was carried out to determine whether forskolin could induce the removal of the intron. Amongst other things, forskolin has potential gene therapy applications. Induction of intron removal was measured as function of cell death, with higher cell death an indicator of removal of the intron.
Experiments were performed as described in the methods namely, HEK or CHO-s cells were transfected with the aforementioned construct and incubated for 24 h. After this time the activating compound DTT or Forskolin was added, % cell death was then measured at 3, 5 and 24 h post-induction.
Induction of intron was measured as function of cell death, using the Countess II cell counter (Thermofisher). Cells were stained with trypan blue to ascertain cell viability. 10 μl of cell suspension was added to a Haemocytomer and analysed on the countess.

CHO cells = experiment: SEAP activity from intron-containing SEAP construct after DTT induction; format: cell-based, Chinese hamster
Description: (§1) Experiments were performed essentially as described in the above methods, namely, HEK or CHO-s cells were transfected with the aforementioned construct (pMA-RQ) and incubated for 24 hrs. After this time the activating compound DTT was added at 2 mM final concentration, SEAP activity was then measured at 3, 5 and 24 hrs post-induction.
(§2) The protocol for transfection for 24 well plates was as described in Example 1. Thereafter: • Supernatant was measured for SEAP activity after 24 hrs. • Intron splicing from the SEAP construct was measured after addition of either 2 mM DTT by monitoring of SEAP activity after 3, 5 and 24 hrs. • SEAP activity was measured as per manufacturer's instructions, Roche, SEAP reporter gene assay kit, obtained from Sigma-Aldrich, Cat. No. 11 779 842 001.

HEK293 cells [2] = experiment: as above; format: cell-based, human
Description: as §1, §2

CHO-S cells = experiment: EGFP fluorescence from regulatable-intron construct before and after UPR induction with 2 mM DTT; format: cell-based, Chinese hamster
Description: (§3) The standard protocol for transfection of these cells was modified for 24 well plates as follows: • 40 ml of cells were grown in a 250 ml vented Erlenmeyer flask (Sigma-Aldrich CLS431144) at 37° C., 8% CO2 with agitation at 100 rpm. Cells were seeded as described in the manufacturer's instructions. • 1 day before transfection cells were counted using a haemocytometer and split to 500,000 cells/ml. • On the day of transfection cells are seeded to 1 million cells/ml in 500 μl of appropriate medium in a 24 well plate. • 0.625 μg of DNA/well was then added to 10 μl of OptiMem medium (Thermofisher; 11058021) and incubated for 5 minutes at room temperature. • Concurrently 0.625 μl of Max reagent was made up to 10 μl by addition of OptiMem and incubated for 5 minutes at room temperature. • After this incubation both mixes were added to the same tube and incubated at room temperature for 25-30 minutes. • The DNA/Max reagent mix (20 μl/well) was then added directly to the cells and the cells incubated as described previously. • Cells were then measured for GFP fluorescence after 24 hrs. • Intron splicing from the GFP construct was measured via addition of 2 mM DTT and monitoring of GFP fluorescence after 1 hr. DTT is a strong reducing agent which induces ER stress by disrupting the formation of disulphide bonds within the ER. […]

HEK293F cells = experiment: as above; format: cell-based, human
Description: as §3

CCCCCCCCCCCCCCCC(=O)O [palmitate, palmitic acid]
induction of UPR indicated by expression of functional EGFP (UPR): effectively induced the UPR

Cc1nnc(-c2ccc(N3CCC(Oc4ccccc4C(F)(F)F)CC3)nn2)s1 [MF-43, 2-methyl-5-(6-(4-(2-(trifluoromethyl)phenoxy)piperidin-1-yl)pyridazin-3-yl)-1,3,4-thiadiazole]
induction of UPR indicated by expression of functional EGFP (UPR): effectively induced the UPR

ATF06-MP001: ATF6 enhancer (6 repeats, 20 bp spacers) coupled to MinTK driving luciferase (SEQ ID NO: 59)
inducibility of luciferase expression by DTT (HEK293-F cells; 2 mM DTT): good inducibility | luciferase expression after induction of the UPR versus CMV-IE promoter (HEK293-F cells; 2 mM DTT): significantly higher than provided by the constitutive CMV-IE promoter | luciferase expression prior to addition of DTT (HEK293-F cells; before 2 mM DTT): negligible expression

O[C@H](CS)[C@H](O)CS (racemic) [DTT, Dithiothreitol]
induction of UPR indicated by expression of functional EGFP (UPR): very potent inducer of the UPR | time after treatment at which % of dead cells is equal to the positive control (HEK293 cells [1]): 5 h | number of dead cells after 3 h (HEK293 cells [1]; 3 h): close to the control construct which contained no intron

SEAP-ATF6-001: SEAP expression construct with 6×ATF6 spaced by 20 bp, CMV-MP and regulatable intron (SEQ ID NO: 34)
SEAP expression after 24 h higher than CMV-IE (CHO cells; 2 mM DTT, 24 h, CMV-IE shown in HEK293): ~2 fold | SEAP expression before induction (CHO cells; no DTT): no SEAP expression | SEAP expression after 24 h higher than CMV-IE (HEK293 cells [2]; HEK293, 2 mM DTT, 24 h): ~2 fold | SEAP expression before induction (HEK293 cells [2]; HEK293, no DTT): no SEAP expression

SYNP-XBP-01: CMV-MP controlling expression of EGFP with XBP1 intron (SEQ ID NO: 28), in plasmid pMA-RQ
GFP fluorescence induced upon addition of 2 mM DTT (CHO-S cells; 2 mM DTT): > 1000 fold | background GFP fluorescence before induction (CHO-S cells; no DTT): no background at all | GFP production induced upon inducing ER-Stress (HEK293F cells; 2 mM DTT, 1 hr after treatment, 3 independent experiments): 4-10 fold | resultant GFP activity higher than the positive control (HEK293F cells; after 2 mM DTT, control CMV-MP-GFP): 2.5-7 fold | background GFP fluorescence before induction (HEK293F cells; no DTT, versus control): considerably lower than the control
